Test results as given in patent US20140106015A1, “COMPOSITION CONTAINING HEAT-TREATED POWDER OR EXTRACT OF GLYCINE SOJA AS ACTIVE GRADIENT FOR PREVENTION AND TREATMENT OF DIABETES MELLITUS AND DIABETIC COMPLICATIONS” (KOC BIOTEC CO LTD, priority 2011, published 2014).

Columns and labels:
Format in all cases: in vivo, mouse
[1] = test system: BKS.Cg-m+/+ Leprdb/J homozygous diabetic (db/db) mice; test: Experimental Example 5: efficacy comparison with anthocyanins, pinitol, banaba/Cr complex in db/db mice
Description: “Pinitol”: Product containing 95% or more of pinitol (Sigma-Aldrich) “Banaba/Cr complex”: Wellness Banaba Gold ChromeTM (containing 400 mg/g banaba leaf extract, 200 mg/g indigestible maltodextrin and 0.1 mg/g chromium) Male db/db mice, aged 3 weeks, were acclimatized to an animal breeding room for 1 week. 4 mice were assigned to each experimental group. […] All animals were fasted for 6 h from 9 a.m. to 3 p.m. every Wednesday. Blood samples were collected from the mouse tail vein and blood glucose levels were measured using a portable blood glucose meter (OneTOUCH@Ultra, Johnson & Johnson, USA). […] The following are a total of 8 experimental groups used. Classification of Experimental Groups • NC: […] After the drug (test material) was administered to each experimental group for 6 weeks, abdominal, epididymal, and inguinal adipose tissues were excised from each experimental animal. The total weight of the adipose tissues was measured. […] For the autopsy, each animal was fasted for 12 h. […] After plasma was separated, the levels of total cholesterol, high-density lipoprotein (HDL) cholesterol, low-density lipoprotein (LDL) cholesterol, triglyceride, BUN, and phospholipid in the plasma were measured using an automatic biochemical analyzer (Hitachi-720, Hitachi Medical, Japan). […] The levels of glucose and insulin in the serum were analyzed. Plasma was obtained as a sample in the same manner. The plasma insulin level was measured using a Mouse Insulin ELISA kit (Shibayagi, Japan) and an ELISA reader (Labsystems, Finland). Data obtained from the above experiments were expressed as mean±standard error and significance assay was determined using Student's T-test.

[2] = test system: db/db mice; test: Experimental Example 2: glycine soja streamed powder versus metformin in db/db mice, 6 weeks oral; details: age of 10 weeks
Description: The glycine soja streamed powder (DC) was diluted with physiological saline and the dilution was orally administered in divided portions (each 0.2 ml) at 10 a.m. and 4 p.m. daily using a mouse sonde (2 g/kg/day). Metformin (1,1-dimethylbiguanide), which is a widely used hypoglycemic agent, was chosen as positive control. Metformin was dissolved in 0.25% carboxymethylcellulose (CMC) and administered orally in two divided portions (each 0.2 ml) in the same manner (150 mg/kg/day). The same amount of physiological saline as negative control was administered in the same manner. A general bean streamed powder was used as another comparative test group. The bean streamed powder was obtained in the same manner as in Example 1, except that bean was used instead of glycine soja. The bean streamed powder was administered orally twice a day in the same amount and manner as the glycine soja streamed powder (DC).
Male db/db mice, aged 3 weeks, were acclimatized to an animal breeding room for 1 week. 6 mice were assigned to each experimental group. The blood glucose levels of the animals were measured from the age of 4 weeks at intervals of 1 week for a total of 6 weeks. Drug was administered orally in divided portions (each 0.2 ml) at 10 a.m. and 4 p.m. daily using a mouse sonde. All animals were fasted for 6 h from 9 a.m. to 3 p.m. every Wednesday. Blood samples were collected from the mouse tail vein and blood glucose levels were measured using a portable blood glucose meter (OneTOUCH@Ultra. Johnson & Johnson, USA). Since serum for final biochemical analysis requires blood sampling after fasting for at least 12 h, blood glucose levels were measured at the final 8th week. 2 days after the measurement, an autopsy was conducted. For the autopsy, all animals were fasted for 12 h. Blood samples were drawn from the heart under ether anesthesia, put in tubes for serum separation, and centrifuged at 3000 rpm for 20 min to obtain serum samples, which were used as samples for the analysis of biochemical indices.
Experimental Group Classification • Control (db/db mice) (n=6) • Positive control (Metformin, 150 mg/kg/day, o.p) (n=6) • Glycine soja streamed powder (DC) (2.0 g/kg/day, o.p) (n=6) • Bean powder (2.0 g/kg/day, o.p) (n=6)
After a test material was administered to each experimental group for 6 weeks, blood glucose level was measured at the final 8th week. 2 days after the measurement, an autopsy was conducted. For the autopsy, each animal was fasted for 12 h. Blood was drawn from the heart under ether anesthesia, put in a tube for serum separation, and centrifuged at 3000 rpm for 20 min to obtain serum, which was used as a sample for the analysis of biochemical indices. The glucose and insulin levels of the serum were analyzed. Changes in the insulin level and insulin resistance index (HOMAIR) of each experimental group during administration for 8 weeks period were calculated by the following formulae. Plasma was obtained as a sample in the same manner. The level of insulin in the plasma was measured using a Mouse Insulin ELISA kit (Shibayagi, Japan) and an ELISA reader (Labsystems, Finland).
After a test material was administered to each experimental group for 6 weeks, abdominal, epididymal, and inguinal adipose tissues were excised from each experimental animal. The total weight of the adipose tissues was measured.
Blood was obtained in the same manner as in 1-3, put in a tube for serum separation, and centrifuged at 3000 rpm for 20 min to obtain serum, which was used as a sample for the analysis of biochemical indices. Total cholesterol, high-density lipoprotein (HDL) cholesterol, low-density lipoprotein (LDL) cholesterol, triglyceride, and phospholipid levels, which are indices of lipid contents in plasma and liver, in the plasma were measured using an automatic biochemical analyzer (Hitachi-720, Hitachi Medical, Japan). […]

[3] = test system: db/db mice; test: as above; details: age of 10 weeks, fasted about 16 h, DC and bean powder 2 g/kg/day, metformin 150 mg/kg/day
[4] = db/db mice, 100 mg/kg/day, BANABA 300 mg/kg/day
[5] = DC and bean powder 2 g/kg/day, metformin 150 mg/kg/day
[6] = metformin 150 mg/kg/day, bean powder 2 g/kg/day

CO[C@H]1[C@H](O)[C@@H](O)[C@@H](O)[C@H](O)[C@@H]1O [Pinitol, pinitol]
serum BUN level higher than non-treated group ([1]; No. 4 mouse of the Pinitol-administered group): ≥ 3 times | serum BUN level ([1]; No. 4 mouse of the Pinitol-administered group, 100 mg/kg/day, NC 30.2 mg/dL): 92.8 mg/dL | blood glucose level ([1]; db/db mice, 9th week, tail vein, fasted 6 h, oral 6 weeks, 100 mg/kg/day, BANABA 300 mg/kg/day): 231.8 mg/dL | blood glucose level lower than NC (hypoglycemic efficacy) ([1]; db/db mice, 9th week, 100 mg/kg/day, BANABA 300 mg/kg/day): 52.1% | daily food intake compared with non-treated group ([1]; db/db mice, after completion of the tests): smaller | serum low-density lipoprotein cholesterol level compared with non-treated group ([1]; db/db mice, age of 9 weeks): not substantially different | serum insulin level ([1]; db/db mice, age of 9 weeks, 100 mg/kg/day, BANABA 300 mg/kg/day): 6.6 ng/mL | serum insulin level lower than NC (suppressive efficacy on insulin resistance) ([1]; db/db mice, age of 9 weeks, NC 10.2 ng/ml): 35.3% | serum triglyceride (TG) level relative to non-treated group (NC) ([1]; db/db mice, age of 9 weeks, NC 22 mg/dL): approximately twice | serum total cholesterol level compared with non-treated group ([1]; db/db mice, age of 9 weeks, NC 168.3 mg/dL): not substantially different | adipose tissue weight lower than non-treated group (NC) ([1]; db/db mice, age of 10 weeks): about 5.4% | liver tissue weight compared with NC ([1]; db/db mice, age of 10 weeks): not substantially different | liver tissue weight lower than non-treated group (NC) ([1]; db/db mice, age of 10 weeks, p<0.05): about 7.0% | food efficiency ratio compared with non-treated group ([1]; db/db mice, for 5 weeks): similar | Food efficiency ratio (PER, %) ([1]; db/db mice, for 5 weeks, calculated from food intakes and body weight gains): 11.9 ± 1.28% | Body weight gain [1, 4]: 0.500 ± 0.05 g/day | Food intake [1, 4]: 4.20 g/day

CN(C)C(=N)NC(=N)N [metformin, 1,1-dimethylbiguanide]
serum high-density lipoprotein cholesterol level compared with non-administered group [2]: no significant differences | serum triglyceride level lower than non-administered group (NC) ([2]; DC 2 g/kg/day, metformin 150 mg/kg/day): 38.8% | serum ALT level [2, 5]: 54.9 U/L | serum AST level [2, 5]: 120.0 U/L | serum glucose level lower than non-administered group [2, 5]: 34.6% | serum triglyceride (TG) level [2, 5]: 78.8 mg/dL | serum total cholesterol level compared with non-administered group ([2]; metformin 150 mg/kg/day): low compared to that of the non-administered group, but there was no statistical significance | serum insulin level compared with non-administered group [2, 6]: slightly lower than the serum insulin level of the non-administered group, but there were no statistical significances | serum low-density lipoprotein cholesterol level compared with non-administered group [2, 6]: low compared to the low-density lipoprotein cholesterol level of the non-administered group, but there were no statistical significances | blood glucose level lower than non-administered group (NC) ([2]; oral 6 weeks, DC and bean powder 2 g/kg/day, metformin 150 mg/kg/day): 34.6% | serum glucose level [3]: 376.0 mg/dL
